Measured values taken from patent US20030199584A1, “Reduction of hair growth” (priority 2002, published 2003).
Read-outs that look alike come from different tables or passages of the source.

Experiments:
[1] = In vitro diffusion (Franz) skin penetration assay, Protocol 1, 14C-DFMO through hamster skin; assay type: in vitro ADME, Golden, Syrian hamsters
Excerpt: (§1) An in vitro diffusion assay was established based on that reported by Franz. Dorsal skin from Golden, Syrian hamsters or Hartley guinea pigs is clipped with electric clippers, trimmed to the appropriate size and placed in a glass diffusion chamber. The receptor fluid consisted of phosphate buffered saline, an isotonic solution for maintaining cell viability and 0.1% sodium azide, a preservative and was placed in the lower chamber of the diffusion apparatus such that the level of the receptor fluid was in parallel with the mounted skin. After equilibration at 37° C. for at least 30 minutes, 10 μl or 20 μl of the test or control formulation containing equal amounts of DFMO were added to the surface of the skin and gently spread over the entire surface with a glass stirring rod. A radiotracer amount of 14C-DFMO (0.5-1 microCurie per diffusion chamber) was used in the formulations to assess DFMO penetration. Penetration of DFMO was determined by removing an aliquot (400 μL) periodically throughout the course of the experiment, and quantitating radioactivity using liquid scintillation.

[2] = In vitro diffusion skin penetration assay of DFMO, skin species not named; assay type: in vitro ADME, Golden, Syrian hamsters or Hartley guinea pigs; conditions: for Fold-Enhancement DDP/Control: DDP 10%; for % Applied Dose of DFMO penetrated: cream formulation 1 with or without DDP 10%
Excerpt: as §1

[3] = DFMO skin penetration after overnight pretreatment of the skin with fatty acid; assay type: in vitro ADME; conditions: skin pretreated overnight; DFMO in hydroalcoholic formulation; receptor fluid measured hourly over eight hours (FIG. 1, FIG. 2)
Excerpt: as §1
Further confirmation of the cis fatty acid action on skin penetration was obtained by pretreating the skin overnight with oleic acid or elaidic acid. The following day DFMO was applied to the surface of the skin in the hydroalcoholic formulation.

[4] = assay type: in vitro ADME; conditions: 1 %
Procedure: DFMO skin penetration was assessed using a modified protocol of the Franz diffusion assay. In this experiment either the SP33 formulation (without DFMO) or the SP33 formulation prepared with dipropylene glycol dimethylether (DPGDME) again with out DFMO was applied to the skin for […]. The formulations were then removed from the skins' surfaces, which were dried with a cotton swab. The hydroalcoholic formulation 1—containing 1% DFMO with radiotracer ^14C-DFMO—was applied to the skin and gently spread over the surface with a glass, stirring rod. Aliquots of the receptor fluid were removed at 3, 6 and 24 hours after DFMO application and penetration was determined using liquid scintillation. As shown in Table 6 enhancement of DFMO penetration through the skin occurred when dipropylene glycol […] was substituted for dipropylene glycol.

[5] = In vitro skin penetration assay, Protocol 2 (skin pretreated 15 minutes with formulation without DFMO); assay type: in vitro ADME, Golden, Syrian hamsters or Hartley guinea pigs; conditions: Tables 9 and 10
Excerpt: as §1
This procedure is similar to that described in Protocol 1 with the exception that prior to the application of radiolabeled DFMO, the skin surfaces received 1 ml of the formulation without DFMO. After 15 minutes the formulation was removed and the surface of the skin was gently dried with a cotton swab. […]

## CCCCCCCC/C=C\CCCCCCCC(=O)O [Oleic Acid]
[1]
  Effect on DFMO skin penetration (in words): increase in skin penetration
[1]; Golden Syrian, hamster, 10 %
  Fold Enhancement of DFMO penetration: 2.85 ± .76 fold

## CC(C)[C@@H]1CC[C@@H](C)CC1=O [Menthone]
[1]; Golden Syrian, hamster, 10 %
  Fold Enhancement of DFMO penetration: 1.99 ± .40 fold

## Capric/Caprylic Triglyceride [Captex]
[2]
  Effect on DFMO skin penetration (in words): increase in DFMO skin penetration

## CC12CCC(CC1)C(C)(C)O2 [Cineole, 1,8-cineole]
[1]; Golden Syrian, hamster, 10 %
  Fold Enhancement of DFMO penetration: 1.91 ± .51 fold

## CCCCCCCCCCCCN1CCCC1=O [DDP, 1-dodecyl-2-pyrrolidanone]
[2]; 2 hrs
  Fold-Enhancement DDP/Control: 0.41 fold
  % Applied Dose of DFMO penetrated: 0.15 ± .01 % Applied Dose
[2]; 4 hrs
  Fold-Enhancement DDP/Control: 0.91 fold
  % Applied Dose of DFMO penetrated: 0.52 ± .08 % Applied Dose
[2]; 6 hrs
  Fold-Enhancement DDP/Control: 2.00 fold
  % Applied Dose of DFMO penetrated: 1.26 ± .24 % Applied Dose
[2]; 24 hrs
  Fold-Enhancement DDP/Control: 5.11 fold
  % Applied Dose of DFMO penetrated: 9.31 ± 1.38 % Applied Dose
[2]; DDP 10% in cream base Formulation-1
  Increase in skin penetration by DFMO: ≤ 5 fold

## CCCCCCCCCCC/C=C\CCCCC(=O)O [Petroselenic Acid]
[1]
  Fold Enhancement of DFMO penetration: 1.40 ± 1.5 fold

## CCCCCCCC/C=C/CCCCCCCC(=O)O [elaidic acid]
[3]
  Enhancement of DFMO skin penetration after pretreatment: no increase in skin penetration of DFMO
[1]
  Effect on DFMO skin penetration (in words): devoid of DFMO penetration enhancing properties

## COCC(C)OCC(C)OC (centres unmarked) [DPGDME, dipropylene glycol dimethylether]
[4]; 3 h
  % Applied Dose of DFMO penetrated: 7.71 ± 3.1 % Applied Dose
  Fold-Enhancement: 4.64 fold
[4]; 6 h
  % Applied Dose of DFMO penetrated: 9.55 ± 3.68 % Applied Dose
  Fold-Enhancement: 3.93 fold
[4]; 24 h
  % Applied Dose of DFMO penetrated: 10.85 ± 3.8 % Applied Dose
  Fold-Enhancement: 3.02 fold

## CCCCCCCCCCCCCC(=O)OC(C)C [IPM, isopropyl myristate]
[5]
  Effect on penetration of DFMO through the skin (in words): significantly increased the penetration of DFMO through the skin

## Tween-20
[1]; Tween derivative 5% in Hydroalcoholic Formulation 1, hamster skin
  Fold Enhancement of DFMO penetration: 1.54 ± .47 fold

## Tween-40
[1]
  Fold Enhancement of DFMO penetration: 3.07 ± 1.65 fold

## CC(C)CCCCCCCCCCCCCCCOC(=O)CCCCCCCCCCCCCCC(C)C [Isostearyl Isosterate, isostearyl isostearate]
[5]
  Effect on penetration of DFMO through the skin (in words): significantly increased the penetration of DFMO through the skin

## Tween-80
[1]
  Fold Enhancement of DFMO penetration: 0.502 ± .14 fold
  Reduction in DFMO penetration: ~50%
